Usually viability stands for a read-out of living cells in per cent, often relative to untreated cells. Broadly, the EC50 is the concentration needed to bring the measured effect to its halfway point. As usually defined, the fold induction is the signal under treatment as a multiple of the control signal. Low values mean little rise in signal, high ones a large rise in signal.

Where two headings read alike, the source gives them in different places. Marks after values point to notes of the source that are not given here.

For assay [1], the system named is db/db mice. The assay can be described thus: Hepatic triglyceride, liver histology, serum ALT and ALP in high-fat diet fed db/db mice. The format is in vivo, mouse. The following applies: 10 mg/kg once daily for 10 days. Here is the method: Liver tissues fixed in 4% paraformaldehyde in example 5 were performed for H&E staining by standard procedures. Liver tissues fixed in 4% paraformaldehyde were embedded in optimum cutting temperature compound (OCT), and cryosectioned. Frozen liver sections were stained with 0.3% oil red O according to standard procedures.
The triglyceride levels in liver tissues from mice treated with compounds were analyzed using Tissue triglyceride assay kit (Applygen, Beijing, China).
Alkaline Phosphatase (ALP) is a marker of cholestasis. Cholestasis can be suspected when there is an elevation of ALP enzymes. In fact, greater than 90% of patients with bile stasis will have an elevated alkaline phosphatase. […] The aminotransferase is used to evaluate the presence of hepatitis and may be elevated in cholestasis or with common bile duct obstruction. In this example, 8-10 week age db/db mice were fed with high-fat diet and treated with 10 mg/kg of compounds once daily for 10 days as in Example 5. The activities of serum ALP and ALT were analyzed using ALP kit and ALT kit, respectively (Nanjing Jiancheng Engineering Institute, China).

The subject of assay [2] is human breast cancer MCF7 cells. The assay can be described thus: MTT cell viability assay, MCF-7. The format is cell-based. The following applies: 48 h, read-out: Cell viability as a percentage of the cells treated with DMSO, MCF-7. The source says:
(§1) The MTT assay is a colorimetric assay for assessing cell metabolic activity. It is widely used in high-throughput screening of antitumor drugs due to its high sensitivity and economical features. In this example, MTT was used to detect the inhibitory effects of compounds on various cancer cell lines. Cancer cells including human colorectal adenocarcinoma HCT15 cells, RA-resistant human colon cancer HCT116 cells, human cervical carcinoma Hela cells, human hepatoma HepG2 cells and human breast cancer MCF7 cells were cultured in DMEM medium containing 10% fetal bovine serum. 20 uM or 40 uM of compounds were administered to treat cells, cell viability is detected by MTT assay and expressed as a percentage of the cells treated with DMSO (Table 4).
In general terms: Formazan colour is commonly taken as a measure of viable cells.

Assay [3] concerns human cervical carcinoma Hela cells. Kind of assay: MTT cell viability assay, Hela. The format is cell-based. Conditions: 48 h, read-out: Cell viability as a percentage of the cells treated with DMSO, Hela.
Source text: as §1

The subject of assay [4] is RA-resistant human colon cancer HCT116 cells. The assay can be described thus: MTT cell viability assay, HCT116. The format is cell-based. Conditions: 48 h, read-out: Cell viability as a percentage of the cells treated with DMSO, HCT116; for viability at 20 µM: HCT-116, 20 uM; for viability at 40 µM: HCT-116, 40 uM.
Source text: as §1

Assay [5] has as its system human colorectal adenocarcinoma HCT15 cells. The assay can be described thus: MTT cell viability assay, HCT15. The format is cell-based. Conditions: 48 h, read-out: Cell viability as a percentage of the cells treated with DMSO, HCT15; for viability at 20 µM: HCT-15, 20 uM; for viability at 40 µM: HCT-15, 40 uM.
Source text: as §1

In assay [6] the test system is human hepatoma HepG2 cells. Kind of assay: MTT cell viability assay, HepG2. The format is cell-based. Conditions: 48 h, read-out: Cell viability as a percentage of the cells treated with DMSO, HepG2.
Source text: as §1

Assay [7] deals with T1, full-length FXR (Homo sapiens, UniProt Q96RI1).
T1 construct: The cells were co-transfected with plasmids encoding full-length FXR and the cognate luciferase reporter EcRE-Luc; expressed in transfected cells; host or cells: COS-7
T1 sequence (Q96RI1 1-486): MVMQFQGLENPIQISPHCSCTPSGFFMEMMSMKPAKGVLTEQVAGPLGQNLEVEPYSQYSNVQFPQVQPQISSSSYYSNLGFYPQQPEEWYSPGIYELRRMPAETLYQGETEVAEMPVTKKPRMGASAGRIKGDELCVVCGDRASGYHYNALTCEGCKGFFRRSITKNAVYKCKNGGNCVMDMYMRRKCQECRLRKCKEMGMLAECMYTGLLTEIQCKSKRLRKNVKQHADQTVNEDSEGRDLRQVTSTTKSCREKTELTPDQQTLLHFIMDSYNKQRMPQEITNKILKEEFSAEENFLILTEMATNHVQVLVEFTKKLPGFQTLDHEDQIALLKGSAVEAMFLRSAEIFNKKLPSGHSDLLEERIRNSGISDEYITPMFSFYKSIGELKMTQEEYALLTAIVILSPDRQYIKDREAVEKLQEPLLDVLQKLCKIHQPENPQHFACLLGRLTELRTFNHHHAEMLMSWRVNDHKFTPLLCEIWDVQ
The assay can be described thus: Cell-based FXR transactivation, EcRE luciferase reporter in COS-7 cells. The following applies: for Cell-based FXR transactivation Fold changes by 5 μM compound: positive: induction, minus: repression; for EC50 / fold induction at 5 µM: EcRE luciferase reporter; for Cell-based FXR transactivation Fold changes by 5 μM compound / fold induction at 5 µM: 5 μM compound. The method, then:
COS-7 cells were cotransfected with plasmids encoding full length FXR.
For transient transfection assay, COS-7 cells were maintained in DMEM containing 10% fetal bovine serum and were transiently transfected using Lipofectamine 2000 (Invitrogen). Before 24 h of transfection, 24-well plates were plated. The cells were co-transfected with plasmids encoding full-length FXR and the cognate luciferase reporter EcRE-Luc. Ligands were added 5 hours after transfection. Cells were harvested 24 hours later for the luciferase assays according to the manufacturer's instructions (Dual-Luciferase® Reporter Assay System, Promega). Luciferase activities were normalized to renilla activity co-transfected as an internal control.
(In general: A reporter such as luciferase makes a cellular process visible.)

The target in assay [8] is T2, FXR ligand binding domain (LBD) (Homo sapiens, UniProt Q96RI1).
T2 construct: made in house
T2 sequence (Q96RI1 262-486 limits assumed): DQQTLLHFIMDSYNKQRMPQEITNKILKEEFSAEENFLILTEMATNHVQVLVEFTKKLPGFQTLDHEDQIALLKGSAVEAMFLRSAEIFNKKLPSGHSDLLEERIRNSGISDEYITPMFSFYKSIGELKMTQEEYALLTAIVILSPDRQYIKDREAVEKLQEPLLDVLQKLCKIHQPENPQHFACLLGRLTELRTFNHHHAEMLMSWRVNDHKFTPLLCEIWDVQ
Kind of assay: AlphaScreen assay: FXR LBD recruitment of coregulator peptide motifs (SRC2-3, SRC1-2). The format is biochemical. Here is the method: In search of novel ligands for FXR, we used FXR ligand binding domain (LBD) as a bait to screen chemical libraries based on AlphaScreen biochemical assay, which determines the efficacy of small molecules in influencing binding affinity of FXR with coregulator peptides (see e.g., Jin et al., (2013) Nature communications 4, 1937).
The binding of the cofactor peptide motifs to FXR ligand binding domain (LBD) in response to ligands was determined by AlphaScreen assays using a hexahistidine detection kit from Perkins-Elmer. The FXR LBD protein was purified as described previously (see e.g., Jin et al., (2013) Nature communications 4, 1937). The experiments were conducted with approximately 20-40 nM receptor LBD and 20 nM biotinylated cofactor peptides in the presence of 5 μg/ml donor and acceptor beads in a buffer containing 50 mM MOPS, 50 mM NaF, 0.05 mM CHAPS, and 0.1 mg/ml bovine serum albumin, all adjusted to a pH of 7.4.
Background: Alpha assays give light when donor and acceptor beads are brought close together.

Setting [9] is: SRC1-2 peptide, Table 2, read-out: EC50 (μM) of FXR binding by AlphaScreen assay recruit SRC1-2.
Where [10] appears, read: SRC2-3 peptide, Table 2, read-out: EC50 (μM) of FXR binding by AlphaScreen assay recruit SRC2-3.
[11] abbreviates: SRC1-2 peptide, Table 1, read-out: EC50 (μM) of FXR binding by AlphaScreen assay recruit SRC1-2.
[12] abbreviates: SRC2-3 peptide, Table 1, read-out: EC50 (μM) of FXR binding by AlphaScreen assay recruit SRC2-3.

`CC1(C)C2CCC1(C)C(OC(=O)c1ccc([N+](=O)[O-])cc1)C2` (centres unmarked) [XD-14, 1,7,7-trimethyl-bicyclo[2.2.1]-heptan-2-yl 4-nitrobenzoate]: in assay [1] (vehicle 129 ± 15), the “Serum ALP (U/L)” value was 86 ± 20^a U/L. For the same molecule, the “Serum ALT (U/L)” value in assay [1] (vehicle 377 ± 48, Table 17) is listed as 62 ± 11^c U/L. In addition, the viability at 20 µM came out at 91 ± 7% in assay [2]; 90 ± 1% in assay [3]; 60 ± 3% in assay [4]; 64 ± 4% in assay [5]; 83% in assay [6]. The viability at 40 µM in assay [2] amounted to 84 ± 2%; in assay [3] it was 80 ± 5%; in assay [4], 42 ± 3%; in assay [5], 58 ± 4%; in assay [6], 77 ± 1%. Further, the “Cell-based FXR transactivation Fold changes by 5 μM compound” value in assay [7] (Table 2) is given as 3. The same molecule gave an EC50 in assay [7] (Table 2) of 1000 to 10000 nM.

For `Cc1cc(C(=O)OC2CC3CCC2(C)C3(C)C)ccc1F` (centres unmarked) [XD-1, 1,7,7-trimethyl-bicyclo[2.2.1]-heptan-2-yl 4-fluoro-3-methylbenzoate], the viability at 20 µM came out at 100 ± 2% in assay [2]; 100 ± 5% in assay [3]; 96 ± 2% in assay [4]; 93 ± 2% in assay [5]; 100 ± 2% in assay [6]. The viability at 40 µM in assay [2] was 65%; in assay [3] it was 70 ± 3%; in assay [4], 62 ± 3%; in assay [5], 42 ± 3%; in assay [6] it was 62 ± 7%. The EC50 was in the range of 1 to 10 µM in assay [8] (setting [9]), 1 to 10 µM in assay [8] (setting [10]) and 1000 to 10000 nM in assay [7] (Table 2). Further, the “Cell-based FXR transactivation Fold changes by 5 μM compound” value in assay [7] (Table 2) is on record as 5.

Turning to `O=C(OC1CCC2CCCCC2C1)c1ccc([N+](=O)[O-])cc1` (centres unmarked) [XD-26, decahydro-naphthalen-2-yl 4-nitrobenzoate], the viability at 20 µM in assay [2] stood at 100 ± 2%; in assay [3] it was 87%; in assay [4], 100 ± 2%; in assay [5] it was 86 ± 2%; in assay [6], 100 ± 2%. Also, the viability at 40 µM was 92 ± 2% in assay [2]; 70 ± 2% in assay [3]; 92 ± 2% in assay [4]; 56 ± 2% in assay [5]; 100 ± 2% in assay [6]. In addition, in assay [7] (Table 2), the “Cell-based FXR transactivation Fold changes by 5 μM compound” value is −2. The EC50 in assay [7] (Table 2) was under 1000 nM.

As to `CC1(C)C2CCC1(C)C(OC(=O)C1CCC(N)CC1)C2` (centres unmarked) [XD-21, 1,7,7-trimethyl-bicyclo[2.2.1]-heptan-2-yl 4-aminocyclo-hexane-carboxylate], the “Cell-based FXR transactivation Fold changes by 5 μM compound” value in assay [7] (Table 2) was 1.5.

For the molecule `Nc1ccc(C(=O)OC2CC3CCC2C3)cc1` (centres unmarked) [XD-22, bicyclo[2.2.1]-heptan-2-yl 4-aminobenzoate], the viability at 20 µM came out at 100 ± 2% in assay [2]; 100 ± 2% in assay [3]; 89 ± 1% in assay [4]; 100 ± 4% in assay [5]; 100 ± 3% in assay [6]. The viability at 40 µM amounted to 100 ± 1% in assay [2]; 100 ± 4% in assay [3]; 65 ± 4% in assay [4]; 100 ± 4% in assay [5]; 100 ± 8% in assay [6]. Moreover, the EC50 was 1 to 10 µM in assay [8] (setting [9]), 1 to 10 µM in assay [8] (setting [10]) and over 1000 nM in assay [7] (Table 2). Further, in assay [7] (Table 2), the “Cell-based FXR transactivation Fold changes by 5 μM compound” value is 3.

Turning to `O=C(Oc1ccc(O)cc1)C12CC3CC(CC(C3)C1)C2` [Tricyclo-[3.3.1.1^3,7]decane-1-carboxylic acid, 4-hydroxy-phenyl ester], the results for the EC50 in assay [8] (setting [11]), in assay [8] (setting [12]) and in assay [7] (Table 1) were under 1 µM, under 1 µM and under 1000 nM, respectively. The molecule also came in with a fold induction at 5 µM in assay [7] (Table 1) of over 10.

As to `Nc1cccc(C(=O)OCC23CC4CC(CC(C4)C2)C3)c1` [Tricyclo-[3.3.1.1^3,7]decane-1-methanol, 1-(3-aminobenzoate)], the EC50 in assay [8] (setting [11]) was under 1 µM; in assay [8] (setting [12]), under 1 µM; in assay [7] (Table 1), under 1000 nM. In assay [7] (Table 1), the fold induction at 5 µM was over 10.

For the molecule `O=C(OC1CCCCCCC1)C1CCC(O)CC1` (centres unmarked) [XD-19, cyclooctyl 4-hydroxy-cyclohexane-carboxylate], the “Cell-based FXR transactivation Fold changes by 5 μM compound” value in assay [7] (Table 2) was 1.5.

In the case of `COc1ccc(OC(=O)C23CC4CC(CC(Cl)(C4)C2)C3)cc1` [Tricyclo-[3.3.1.1^3,7]decane-1-carboxylic acid, 3-chloro-, 4-methoxyphenyl ester], the EC50 in assay [8] (setting [11]) is under 1 µM; in assay [8] (setting [12]) it was under 1 µM; in assay [7] (Table 1), under 1000 nM. Moreover, the fold induction at 5 µM in assay [7] (Table 1) is over 10.

Source of the values: patent US20180116993A1, “MODULATORS OF FARNESOID X RECEPTOR AND METHODS FOR THE USE THEREOF” (XIAMEN UNIVERSITY, priority 2015, published 2018).
